Measured values from patent US12062444B2, “Methods and compositions related to triple-negative breast cancer” (THE UNIVERSITY OF CHICAGO, priority 2017, dated 2024).
Entries after “also recorded” stand apart in the source; their conditions may differ. Like-named read-outs stand apart in the source and are kept apart here.

Tests used:
GR LBD = target: T1, GR LBD (Homo sapiens, UniProt P04150); assay: Ligand titration assay via fluorescence polarimetry (displacement of F-Dex); format: binding; conditions: for Fit of FP dose response curve (half-maximal FP signal): log(inhibitor) vs. normalized response, FIG. 7
T1 construct: The wild-type GR-LBD (amino acid residues 522-777) was cloned into a pFASTBAC plasmid; 6X-His (TEV-cleavable) (cleaved yes); made in house; host or cells: SF9 insect cells (baculovirus, pFASTBAC)
T1 sequence (P04150 522-777): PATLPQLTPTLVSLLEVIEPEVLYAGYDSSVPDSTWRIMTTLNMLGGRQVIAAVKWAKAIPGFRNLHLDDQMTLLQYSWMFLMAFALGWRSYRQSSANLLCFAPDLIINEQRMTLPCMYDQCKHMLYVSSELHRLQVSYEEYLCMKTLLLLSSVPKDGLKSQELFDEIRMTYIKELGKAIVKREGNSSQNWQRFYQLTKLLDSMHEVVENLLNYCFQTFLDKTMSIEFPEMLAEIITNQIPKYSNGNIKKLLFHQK
Procedure: SF9 insect cells were transfected with recombinant bacmid and virus (collected after 6 days) was amplified prior to protein expression. […] GR-LBD was purified first using Ni-affinity chromatography followed by overnight dialysis with TEV protease to remove the His tag. Extensive dialysis into 20 mM TRIS pH 8.0, 500 mM NaCl, 5% glycerol, 0.1% CHAPS, 0.25 mM TCEP was performed to obtain non-ligand-bound GR LBD. […] The purified proteins were concentrated to 5 mg/ml, flash frozen in 50 ul aliquots in N2(l), and stored at −80C.
GR LBD was diluted in assay buffer (20 mM TRIS pH 7.5, 50 mM NaCl, 0.25 mM TCEP) to a concentration of 50 nM. […] Triplicate FP measurements were scaled to maximal FP and averaged for each ligand concentration.

[1] = test system: MDA-MB-231 tumor xenograft; assay: Murine TNBC xenograft, tumor re-growth after treatment; format: in vivo, SCID mice
Procedure: MDA-MB-231 tumors were established in the right pectoral mammary gland of n=23 five- or six-week old female SCID mice (Taconic). Tumor volume was measured by caliper and then calculated using the elliptical volume equation (43). […] Tumor volume was measured by caliper until reaching a volume of approximately 2000 mm^3 or 40 days post-treatment initiation. Tumor data were analyzed using the repeated measures ANOVA using SigmaPlot 11.2 (Systat Software), and p-values between treatment groups over time were obtained using the Holm-Sidak post-hoc test.
Next, we studied the in vivo effect of GR activity in paclitaxel-treated GR+TNBC-bearing female SCID mice (n=23). MDA-MB-231 xenograft tumors were established subcutaneously in the mammary fat pad of 6-week old female mice. […] The mice were treated daily for five days with intraperitoneally with C297 (or vehicle), one hour prior to paclitaxel. The one-hour pre-treatment of the GR modulator was intended to compete with endogenous GC (murine corticosterone and cortisol (68)) bound to the tumor cell GR LBD. The 5 sequential dosing was selected to mimic an intensive adjuvant chemotherapy schedule often used in early-stage TNBC. Following cessation of the 5d treatment, time to tumor xenograft re-growth was measured as a readout for time to relapse post-treatment (43, 46).

[2] = test system: GR-regulated gene expression in MDA-MB-231 cells; assay: Gene expression microarray and analysis; format: cell-based, human
Procedure: MDA-MB-231 cells were grown to 80% confluence in 15-cm dishes in DMEM with 10% FBS. […] Following compound exposure, cells were washed in PBS, and lysed in RNA lysis buffer (Qiagen) overnight at -80° C. RNA extraction, with accompanying DNase treatment, was performed using the RNeasy kit (Qiagen) following the manufacturer's protocol. […] The University of Chicago Genomics Core facility carried out the reverse transcription on the samples, followed by microarray using the Affymetrix Human U133 Plus 2.0 platform. […] A principal components analysis (PCA) was performed using the prcomp function in R (Q-mode PCA using singular value decomposition). […] Dex-regulated genes were overlapped with a list of n=5,170 differentially-expressed tumor-derived genes (in the same direction) from GR-high versus GR-low BCs (52). Ingenuity Pathway Analysis (Qiagen) of the n=462 patient-relevant and antagonist-inhibited genes was performed to obtain Activation Z-scores of the most significant Diseases and Biofunctions (cell functions).

SUM-159-PT cells = conditions: Pac 10 nM, Dex 100 nM, C297 1 μM; 72 hours
Procedure: After compound treatment, cells were fixed in 10% trichloroacetic acid (TCA) at 4° C. overnight. […] Absorbance at λ=510 nm was measured, and relative percentage dead/alive cells was calculated based on minimal and maximal optical densities measured per plate. The experiment was performed in three biological replicates per cell line. P-values comparing the means of cell death percentages were obtained using the two-sample Student's t-test (Graphpad).

[3] = target: T2, mineralocorticoid receptor (Homo sapiens, UniProt P08235); conditions: cited from earlier work
T2 sequence (P08235 1-984): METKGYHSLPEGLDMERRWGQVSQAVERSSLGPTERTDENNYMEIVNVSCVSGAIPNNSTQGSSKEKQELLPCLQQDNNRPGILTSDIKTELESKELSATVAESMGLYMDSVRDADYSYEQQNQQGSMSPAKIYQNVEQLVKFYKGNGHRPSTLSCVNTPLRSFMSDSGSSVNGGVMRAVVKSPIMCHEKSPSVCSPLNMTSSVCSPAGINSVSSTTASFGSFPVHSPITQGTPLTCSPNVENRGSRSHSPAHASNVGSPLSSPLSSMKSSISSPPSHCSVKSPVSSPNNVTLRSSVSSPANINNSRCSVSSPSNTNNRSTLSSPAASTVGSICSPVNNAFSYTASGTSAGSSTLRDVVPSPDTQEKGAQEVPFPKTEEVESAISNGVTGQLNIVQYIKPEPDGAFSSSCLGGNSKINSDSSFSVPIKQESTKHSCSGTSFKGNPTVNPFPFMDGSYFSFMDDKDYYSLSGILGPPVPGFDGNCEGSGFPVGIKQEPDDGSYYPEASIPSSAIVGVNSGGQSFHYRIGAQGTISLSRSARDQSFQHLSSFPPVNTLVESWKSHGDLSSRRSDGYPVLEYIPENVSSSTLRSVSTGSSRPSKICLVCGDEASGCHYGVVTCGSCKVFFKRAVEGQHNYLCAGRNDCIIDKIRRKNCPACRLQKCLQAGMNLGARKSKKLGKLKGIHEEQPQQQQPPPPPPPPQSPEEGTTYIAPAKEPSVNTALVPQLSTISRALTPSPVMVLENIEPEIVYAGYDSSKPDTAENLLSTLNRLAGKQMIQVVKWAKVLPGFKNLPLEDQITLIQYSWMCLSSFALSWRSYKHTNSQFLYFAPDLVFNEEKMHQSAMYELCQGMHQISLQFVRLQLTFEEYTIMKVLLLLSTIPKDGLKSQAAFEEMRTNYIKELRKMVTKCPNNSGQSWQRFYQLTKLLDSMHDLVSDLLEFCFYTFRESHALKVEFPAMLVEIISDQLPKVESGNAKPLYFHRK

GR = target: T3, GR (Homo sapiens, UniProt P04150); conditions: cited from earlier work
T3 sequence (P04150 1-777): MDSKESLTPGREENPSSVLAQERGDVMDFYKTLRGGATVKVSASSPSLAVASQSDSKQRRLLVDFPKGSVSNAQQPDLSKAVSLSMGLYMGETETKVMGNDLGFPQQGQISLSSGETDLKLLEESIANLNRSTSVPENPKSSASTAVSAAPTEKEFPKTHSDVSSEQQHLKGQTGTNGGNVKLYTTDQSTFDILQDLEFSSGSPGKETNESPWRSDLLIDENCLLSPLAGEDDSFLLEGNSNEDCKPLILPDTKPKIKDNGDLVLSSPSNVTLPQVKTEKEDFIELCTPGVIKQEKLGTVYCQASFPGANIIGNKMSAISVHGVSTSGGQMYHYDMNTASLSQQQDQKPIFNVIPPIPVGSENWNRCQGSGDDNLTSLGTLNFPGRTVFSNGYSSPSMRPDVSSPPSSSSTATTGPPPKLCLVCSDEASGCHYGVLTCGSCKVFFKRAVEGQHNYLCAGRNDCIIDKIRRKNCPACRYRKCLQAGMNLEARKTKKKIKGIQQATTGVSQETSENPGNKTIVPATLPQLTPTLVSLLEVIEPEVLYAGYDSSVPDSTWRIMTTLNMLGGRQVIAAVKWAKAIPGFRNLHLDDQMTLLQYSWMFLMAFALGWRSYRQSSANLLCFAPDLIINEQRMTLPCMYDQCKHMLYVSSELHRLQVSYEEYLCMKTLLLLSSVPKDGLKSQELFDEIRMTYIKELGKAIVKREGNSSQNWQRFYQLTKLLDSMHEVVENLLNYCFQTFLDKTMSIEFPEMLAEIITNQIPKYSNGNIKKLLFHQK

[4] = test system: GR chromatin association in MDA-MB-231 cells; assay: GR ChIP-sequencing and analysis; format: cell-based, human; conditions: 100 nM each, 60 minutes, normalized to vehicle
Procedure: MDA-MB-231 cells were grown to 80% confluence in 15-cm dishes in DMEM with 10% FBS, followed by 48h in DMEM supplemented with 2.5% charcoal-stripped FBS. […] Cells were cross-linked with 1% formaldehyde, quenched with glycine (final concentration of […]), and harvested. After cell lysis with ChIP lysis buffer (Magna ChIP A Chromatin Immunoprecipitation Kit, EMD Millipore), cells were sonicated to achieve the majority of DNA fragments between 200-400 bp. Input samples were preserved at -80° C. […] Following manufacturer's protocol, chromatin was eluted from GR ChIP and input samples. Library build and sequencing was performed at the University of Oregon Genomics Core facility using the NextSeq 500 sequencer. Quality control on sequences and adapter sequencing trimming was performed using Kapa Biosystems Illumina Library Quantification Kit. ChIP-seq analysis was carried out using the Galaxy platform (usegalaxy.org (111)). […] GR peaks for each treatment were normalized to its own input control sample. […] Selected GR peak locations in hg19 and GR peak maps were also individually analyzed using Integrative Genomics Viewer, IGV (Broad Institute (116)).

[5] = 50 nM GR LBD, 10 nM F-Dex, ligand 0 to 4000 nM
[6] = at least 1.3 fold-change over vehicle, 100 nM each, 4, 8 and 12 hours combined

CCOC[C@]12Cc3cnn(-c4ccc(F)cc4)c3C=C1CCN(S(=O)(=O)c1ccc(C(F)(F)F)cc1)C2 [C297]
Displacement of fluorescently-labeled Dex (F-Dex) from the GR LBD (GR LBD; [5]): low nM affinities | Fit of FP dose response curve (half-maximal FP signal) (GR LBD): able to fit data | Tumor re-growth with C297 monotherapy in vivo ([1]; C297/Veh versus vehicle control, FIG. 8B): not cytotoxic; also recorded: did not cause a significant delay in tumor re-growth | Genes for which both GR modulators antagonized GR induction or repression by at least 25% ([2]; 100 nM with 100 nM Dex): 3,066 | Antagonized GR-regulated genes shared with the other antagonist ([2]; C297 versus Mif, 100 nM): 87% | Cell viability with C297 treatment alone in vitro (MDA-MB-231 cells; monotherapy, SRB assay, FIG. 8A, cell line not stated): not cytotoxic; also recorded: did not reduce cell viability | Paclitaxel cytotoxicity (percentage cell death) (SUM-159-PT cells): restored cytotoxic sensitivity; also recorded: modest, but significant, relative increase in paclitaxel cytotoxicity

O=c1[nH]c(=O)c(Cc2cccc(C(F)(F)F)c2)c([C@H]2CC[C@H](c3ccccc3)CC2)[nH]1 [C335]
Displacement of fluorescently-labeled Dex (F-Dex) from the GR LBD (GR LBD; [5]): low nM affinities | Fit of FP dose response curve (half-maximal FP signal) (GR LBD): able to fit data | Binding to the mineralocorticoid receptor [3]: bind the mineralocorticoid receptor

CNCC(Cl)c1ccc(OC(C)=O)cc1.Cl (stereo not drawn) [CpdA]
Displacement of fluorescently-labeled Dex (F-Dex) from the GR LBD (GR LBD; [5]): did not displace F-Dex from the GR LBD | Displacement of fluorescently-labeled Dex (F-Dex) from the GR LBD (GR LBD; 50 nM GR LBD, 10 nM F-Dex, ligand 0 to 4000 nM, listed as Compound A): does not bind to ligand pocket | Fit of FP dose response curve (half-maximal FP signal) (GR LBD): does not bind the GR LBD | Displacement of H^3-Dex in cell lysates (GR): displace H^3-Dex in cell lysates

C[C@]12CCC(=O)C[C@@H]1CC[C@@H]1[C@@H]2CC[C@]2(C)[C@@H](O)CC[C@@H]12 [DHT, dihydrotestosterone]
Displacement of fluorescently-labeled Dex (F-Dex) from the GR LBD (GR LBD): did not observe GC competition

C[C@@H]1C[C@H]2[C@@H]3CCC4=CC(=O)C=C[C@]4(C)[C@@]3(F)[C@@H](O)C[C@]2(C)[C@@]1(O)C(=O)CO [Dex, dexamethasone]
Downregulated GC-mediated genes unique to Dex treatment ([2]; FIG. 9A): 41% | Downregulated GC-mediated genes unique to Dex treatment, number ([2]; FIG. 9A): 1321 | Upregulated GC-mediated genes unique to Dex treatment ([2]; FIG. 9A): 50% | Upregulated GC-mediated genes unique to Dex treatment, number ([2]; FIG. 9A): 1363 | Number of downregulated genes [2, 6]: 3,202 | Number of upregulated genes [2, 6]: 2,719 | Genome-wide GR peaks [4]: 8,448 | Paclitaxel cytotoxicity (percentage cell death) (MDA-MB-231 cells; Pac 10 nM, Dex 100 nM, C297 1 μM, 96 hours): dampened paclitaxel (10 nM) cytotoxicity | Paclitaxel cytotoxicity (percentage cell death) (SUM-159-PT cells): dampened paclitaxel (10 nM) cytotoxicity

CC(=O)O[C@H]1C(=O)[C@@]2(C)[C@H]([C@H](OC(=O)c3ccccc3)[C@]3(O)C[C@H](OC(=O)[C@H](O)[C@@H](NC(=O)c4ccccc4)c4ccccc4)C(C)=C1C3(C)C)[C@]1(OC(C)=O)CO[C@@H]1C[C@@H]2O [Pac, paclitaxel]
Post-treatment tumor re-growth ([1]; C297 20 mg/kg/day one hour prior to pac 10 mg/kg/day, five days): significantly smaller than vehicle | Time to tumor re-growth to a 6× increase of tumor volume ([1]; C297 20 mg/kg/day one hour prior to pac 10 mg/kg/day, five days, i.p.): 27 days

C[C@]12CCC(=O)C=C1CC[C@@H]1[C@@H]2[C@@H](O)C[C@@]2(C)[C@H]1CC[C@]2(O)C(=O)CO [cortisol]
Fit of FP dose response curve (half-maximal FP signal) (GR LBD): able to fit data
